2 compounds from US10041047B2, “Compositions and methods for epithelial stem cell expansion and culture” (The Brigham and Women's Hospital, Inc., priority 2013, dated 2018) can be followed below.

The subject of test [1] is Lgr5+ stem cells. Description: Controlled differentiation of Lgr5+ stem cells after CV culture (RT-PCR and staining of differentiation markers). The conditions noted are these: colonies from 6 days CV, then 4 days with ENR plus agents (FIG. 7B). Format: cell-based, mouse.
Test [2] concerns single Lgr5-GFP cells. Description: Culture of FACS-sorted single Lgr5-GFP cells: colony formation, proliferation, GFP expression. As to conditions: for GFP expression / cell proliferation: single GFP-high cells, 7 day culture with ENR. Type of test: cell-based. The protocol:
Crypts and single Lgr5-GFP cells were isolated as previously described (Sato et al., 2009). Briefly, the proximal half of the small intestine was harvested, opened longitudinally, and washed with cold PBS to remove luminal content. The tissue was then cut into 2-4 mm pieces with scissors and further washed 5-10 times with cold PBS by pipetting up and down using a 10-ml pipette. Tissue fragments were incubated with 2 mM EDTA in PBS for 30 min on ice. After removal of EDTA, tissue fragments were washed with PBS to release crypts. Supernatant fractions enriched in crypts were collected, passed through a 70 μm cell strainer and centrifuged at 300 g for 5 minutes. The cell pellet was re-suspended with cell culture media without growth factors and centrifuged at 150 g to remove single cells. Crypts were then cultured or used for single cell isolation. To obtain single cells, crypts were incubated in culture medium for 45 minutes at 37° C. and triturated with a glass pipette. Dissociated cells were passed through 20 μm cell strainer, negative stained with propidium iodide and single viable GFP-high cells were sorted by flow cytometry (FACS Aria, BD) as previously described (Sato et al., 2009). […] Isolated crypts or single cells were cultured as previously described (Sato et al., 2009) with minimal modification. Briefly, crypts or single cells were entrapped in Matrigel and plated at the center of wells in a 24-well plate. After polymerization of Matrigel (growth factor reduced; BD Bioscience), 500 μl of culture medium (Advanced DMEM/F12 (Life Technologies)) was added containing growth factors including EGF (50 ng/ml, Life Technologies), Noggin (100 ng/ml, Peprotech) and R-spondin 1 (500 ng/ml, R&D) and small molecules including CHIR99021 (3 μM, Stemgent) and Valproic Acid (1 mM, Sigma-Aldrich). For comparison of different culture conditions, small molecules or growth factors were added to freshly isolated crypts immediately after plating in Matrigel to test the ability to minimize potential differentiation of the ISC within the crypts and thus sustain crypt cultures. Cell culture media was changed every other day. For single cell culture, cells were embedded in Matrigel containing Jagged-1 peptide (1 μM; AnaSpec) and Y-27632 (10 μM; Tocris) was added for the first 2 days. Cells were passaged either as cell colonies as previously described (Sato et al., 2009) or as single cells. For single cell passage, cell culture medium was removed and Accutase (Life Technologies) was added. After incubation at 37° C. for 10-20 minutes, cell colonies were dissociated into single cells by pipetting. Cells were then washed, embedded in fresh Matrigel and plated into 24-well plates. Cells cultured in the CV condition were passaged every 6 days at a 1:20 split ratio.
The Rho kinase inhibitor Y-27632, which inhibits anoikis of single stem cells (Watanabe et al., 2007), was added for the first two days as previously described (Sato et al., 2009).

For test [3], the system named is Lgr5+ stem cells in small intestinal crypts. Put plainly: Small intestinal crypt culture from Lgr5-GFP mice in Matrigel: cell proliferation and Lgr5-GFP expression. Format: cell-based, mouse. On the procedure:
Crypts and single Lgr5-GFP cells were isolated as previously described (Sato et al., 2009). Briefly, the proximal half of the small intestine was harvested, opened longitudinally, and washed with cold PBS to remove luminal content. The tissue was then cut into 2-4 mm pieces with scissors and further washed 5-10 times with cold PBS by pipetting up and down using a 10-ml pipette. Tissue fragments were incubated with 2 mM EDTA in PBS for 30 min on ice. After removal of EDTA, tissue fragments were washed with PBS to release crypts. Supernatant fractions enriched in crypts were collected, passed through a 70 μm cell strainer and centrifuged at 300 g for 5 minutes. The cell pellet was re-suspended with cell culture media without growth factors and centrifuged at 150 g to remove single cells. Crypts were then cultured or used for single cell isolation. To obtain single cells, crypts were incubated in culture medium for 45 minutes at 37° C. and triturated with a glass pipette. Dissociated cells were passed through 20 μm cell strainer, negative stained with propidium iodide and single viable GFP-high cells were sorted by flow cytometry (FACS Aria, BD) as previously described (Sato et al., 2009). Small intestinal crypts isolated from Lgr5-EGFP-ires-CreERT2 mice were embedded in Matrigel and cultured under conventional culture conditions in the presence of EGF, Noggin and R-spondin 1 (collectively referred to as ENR) leading to organoids with crypts and villus-like domains and GFP^+ cells at the crypt tips, consistent with previous reports (Sato et al., 2009). Isolated crypts or single cells were cultured as previously described (Sato et al., 2009) with minimal modification. Briefly, crypts or single cells were entrapped in Matrigel and plated at the center of wells in a 24-well plate. After polymerization of Matrigel (growth factor reduced; BD Bioscience), 500 μl of culture medium (Advanced DMEM/F12 (Life Technologies)) was added containing growth factors including EGF (50 ng/ml, Life Technologies), Noggin (100 ng/ml, Peprotech) and R-spondin 1 (500 ng/ml, R&D) and small molecules including CHIR99021 (3 μM, Stemgent) and Valproic Acid (1 mM, Sigma-Aldrich). For comparison of different culture conditions, small molecules or growth factors were added to freshly isolated crypts immediately after plating in Matrigel to test the ability to minimize potential differentiation of the ISC within the crypts and thus sustain crypt cultures. Cell culture media was changed every other day. For single cell culture, cells were embedded in Matrigel containing Jagged-1 peptide (1 μM; AnaSpec) and Y-27632 (10 μM; Tocris) was added for the first 2 days. Cells were passaged either as cell colonies as previously described (Sato et al., 2009) or as single cells. For single cell passage, cell culture medium was removed and Accutase (Life Technologies) was added. After incubation at 37° C. for 10-20 minutes, cell colonies were dissociated into single cells by pipetting. Cells were then washed, embedded in fresh Matrigel and plated into 24-well plates. Cells cultured in the CV condition were passaged every 6 days at a 1:20 split ratio. Approximately half of the cultured crypts contained GFP+ cells, which is consistent with the in vivo GFP expression of Lgr5-GFP mice (FIG. 1).
The growth factors used in the ENR condition provide essential, but not adequate cues to sustain the self-renewal of Lgr5^+ stem cells. To identify factors essential to maintaining the self-renewal status of intestinal stem cells, selected small molecules that modulate signaling pathways of ISCs, such as Wnt, Notch, and BMP, were tested under the ENR condition, using the Lgr5-GFP reporter.
CHIR is a highly-specific GSK3 inhibitor that activates the Wnt/β-catenin signaling pathway (Bain et al., 2007), and has been used to maintain the self-renewal state of embryonic stem cells (Ying et al., 2008). […]

The mark [4] stands for this setting: crypts cultured 6 days, agent added to ENR condition.
The mark [5] stands for this setting: multiple concentrations (FIG. 9E).

For the compound `Cc1cnc(-c2cnc(NCCNc3ccc(C#N)cn3)nc2-c2ccc(Cl)cc2Cl)[nH]1` [CHIR99021, 6-[[2-[[4-(2,4-Dichlorophenyl)-5-(5-methyl-1H-imidazol-2-yl)-2-pyrimidinyl]amino]ethyl]amino]-3-pyridinecarbonitrile], the ChgA expression result in test [1] was “did not significantly influence”. Further, the “increase of colony-forming efficiency” value in test [2] (CHIR added to ENR, single Lgr5-GFP+ cells) is on record as 20-50 fold. In addition, in test [2], the GFP expression entry is “only moderately increased” and the cell proliferation result was “significantly increased cell proliferation”. Further, in test [3] (setting [4]), the “GFP expression (percentage and relative GFP intensity of GFP+ cells)” value was “increased the percentage and relative GFP intensity”. Moreover, in test [3] (crypts cultured 6 days, agent added to ENR condition, compared to ENR), the “cell proliferation of crypt cells (organoid size and cell numbers)” value is “promoted the proliferation”. Also, the “need of R-Spondin1 to promote GFP expression” value in test [3] (increasing the concentration of CHIR, crypts 6 days) is on record as “eliminated the need of R-Spondin1”.

Take `CCCC(CCC)C(=O)O` [Valproic Acid]: in test [1], the ChgA expression entry is on record as “lower level of expression”, the Lysozyme expression result is “lower level of expression” and the Muc2 expression entry is listed as “lower level of expression”. Moreover, in test [2], the GFP expression result is on record as “promoted GFP expression” and the cell proliferation result is “minimal pro-proliferative effect”. In addition, the “colony-forming efficiency (in words)” value in test [2] (single Lgr5-GFP+ cells, agent(s) added to ENR) is “only weakly increased”. Further, in test [3] (ENR-C with DAPT 5 μM and VPA 0.25-4 mM, 3 days), the “rescue of cell proliferation and GFP expression following Notch inhibition” value is “rescued”. Besides, the “GFP expression (percentage and relative GFP intensity of GFP+ cells)” value in test [3] (setting [4]) is on record as “significantly increased”. Also, in test [3] (setting [5]), the “GFP expression at multiple concentrations” value was “maintained GFP expression” and the “cell proliferation at higher concentration” value was “marked proliferation inhibition effect”.
